Reference: patent US20250236589A1, “THERAPEUTIC PHENETHYLAMINE COMPOSITIONS AND METHODS OF USE” (Cybin IRL Limited, priority 2022, published 2025)
Read-outs that look alike come from different tables or passages of the source.

Assays:
[1] = target: T1, human 5-HT2B receptor (Homo sapiens (Human), UniProt P41595); experiment: 5-HT2B radioligand binding ([125I](±)DOI)
Description: In another series of 5-HT1A,2A,2B radioligand competition binding assays, the conditions were as follows: For 5-HT1A assays, cell membrane homogenates (˜30 μg protein) derived from HEK-293 cells expressing human 5-HT1ARs were incubated with 0.5 nM [^3H]8-hydroxy-2-(di-n-propylamino)tetralin ([^3H]8-OH-DPAT) for 60 min at room temperature in the presence or absence of the test article. Non-specific binding was determined in the presence of 10 μM 8-OH-DPAT. Samples were then analyzed as described above, with only immaterial differences. […] Samples were then analyzed as described above.

[2] = target: 5-HT2A receptor (Homo sapiens (Human), UniProt P28223); experiment: 5-HT2A functional assay, IP1 (IPOne); format: cell-based; conditions: for Emax: relative to 5-HT
Description: After incubation, cells were lysed and fluorescence acceptor and donor were added. FRET was measured after 60 min at room temperature using a microplate reader (Envision, Perkin Elmer). TRUPATH assays followed a similar workflow, except that different reagents were used, and LiCl was not included in the samples; the protocol was based on the report by Olsen, R. H. J. et al., cited above.

[3] = target: T1, human 5-HT2B receptor; experiment: 5-HT2B functional assay, IP1 (IPOne); format: cell-based; conditions: for Emax: IP1 assay, relative to 5-HT
Description: 5-HT2A,2B,2C receptor-mediated Gq activation—canonical signaling pathways—[phosphoinositide hydrolysis leading to the production of inositol phosphate 1 (IP1, IPOne, Cisbio assay) or direct G-protein activation using TRUPATH technology]were measured as previously described (Porter, R. H. P., Benwell, K. R., Lamb, H., Malcolm, C. S., Allen, N. F., Revell, D. F., Adams, D. R. and Sheardown, M. J., 1999, Functional characterization of agonists at recombinant human 5-HT2a, 5HT2b and 5-HT2c receptors in CHO-K1 cells, Brit J Pharmacol 128, 13; Olsen, R. H. J., DiBerto, J. F., English, J. G. et al. TRUPATH, an open-source biosensor platform for interrogating the GPCR transducerome. […] Briefly, for the IPOne assay, for 5-HT2ARs, CHO-K1 or HEK-293 cells were incubated with test articles and 5-HT (positive control) in stimulation buffer containing LiCl. After incubation, cells were lysed and fluorescence acceptor and donor were added. FRET was measured after 60 min at room temperature using a microplate reader (Envision, Perkin Elmer). TRUPATH assays followed a similar workflow, except that different reagents were used, and LiCl was not included in the samples; the protocol was based on the report by Olsen, R. H. J. et al., cited above.

[4] = target: 5-HT1A (h) (Homo sapiens (Human), UniProt P08908); experiment: Off-target screen, radioligand displacement at 10 μM; format: binding; conditions: agonist radioligand
[5] = target: Dopamine D3 (h) (Homo sapiens (Human), UniProt P35462); experiment: as above; format: binding
[6] = target: Adenosine A1 (h) (Homo sapiens (Human), UniProt P30542); experiment: as above; conditions: read-out: binding at 10 μM
[7] = target: Adenosine A3 (h) (Homo sapiens (Human), UniProt P0DMS8); experiment: as above; conditions: read-out: binding at 10 μM
[8] = target: Angiotensin AT1 (h) (Homo sapiens (Human), UniProt P30556); experiment: as above; conditions: read-out: binding at 10 μM
[9] = target: Angiotensin AT2 (h) (Homo sapiens (Human), UniProt P50052); experiment: as above; conditions: read-out: binding at 10 μM
[10] = test system: BZD (central) (rat cortex); experiment: as above; format: binding
[11] = target: B2 (h) (Homo sapiens (Human), UniProt P30411); experiment: as above; conditions: read-out: binding at 10 μM
[12] = test system: GABA (non-selective) (rat cortex); experiment: as above; format: binding
[13] = target: Galanin GAL2 (h) (Homo sapiens (Human), UniProt O43603); experiment: as above; conditions: read-out: binding at 10 μM
[14] = test system: Platelet-Derived Growth Factor (PDGF) (m); experiment: as above; format: binding, mouse
[15] = target: Chemokine CCR1 (h) (Homo sapiens (Human), UniProt P32246); experiment: as above; conditions: read-out: binding at 10 μM
[16] = target: Tachykinin NK1 (h) (Homo sapiens (Human), UniProt P25103); experiment: as above; conditions: read-out: binding at 10 μM
[17] = target: Tachykinin NK2 (h) (Homo sapiens (Human), UniProt P21452); experiment: as above; conditions: read-out: binding at 10 μM
[18] = target: Tachykinin NK3 (h) (Homo sapiens (Human), UniProt P29371); experiment: as above; conditions: read-out: binding at 10 μM
[19] = target: Neurotensin NT1 (h) (Homo sapiens (Human), UniProt P30989); experiment: as above; conditions: read-out: binding at 10 μM
[20] = target: PAC1 (Pituitary adenylate cyclase-activating polypeptide, PACAP) (h) (Homo sapiens (Human), UniProt P41586); experiment: as above; conditions: read-out: binding at 10 μM
[21] = target: PPARγ (h) (Homo sapiens (Human), UniProt P37231); experiment: as above; conditions: read-out: binding at 10 μM
[22] = test system: PCP (rat cortex); experiment: as above; format: binding
[23] = target: Prostaglandin EP4 (h) (Homo sapiens (Human), UniProt P35408); experiment: as above; conditions: read-out: binding at 10 μM
[24] = test system: P2Y (ATP) (rat cortex); experiment: as above; format: binding
[25] = target: Vasopressin V1a (h) (Homo sapiens (Human), UniProt P37288); experiment: as above; conditions: read-out: binding at 10 μM
[26] = test system: Chloride Cl— channel (GABA-gated) (rat cortex); experiment: as above; format: binding
[27] = target: dopamine transporter (h) (Homo sapiens (Human), UniProt Q01959); experiment: as above; conditions: read-out: binding at 10 μM

T1 sequence (P41595 whole entry, looked up): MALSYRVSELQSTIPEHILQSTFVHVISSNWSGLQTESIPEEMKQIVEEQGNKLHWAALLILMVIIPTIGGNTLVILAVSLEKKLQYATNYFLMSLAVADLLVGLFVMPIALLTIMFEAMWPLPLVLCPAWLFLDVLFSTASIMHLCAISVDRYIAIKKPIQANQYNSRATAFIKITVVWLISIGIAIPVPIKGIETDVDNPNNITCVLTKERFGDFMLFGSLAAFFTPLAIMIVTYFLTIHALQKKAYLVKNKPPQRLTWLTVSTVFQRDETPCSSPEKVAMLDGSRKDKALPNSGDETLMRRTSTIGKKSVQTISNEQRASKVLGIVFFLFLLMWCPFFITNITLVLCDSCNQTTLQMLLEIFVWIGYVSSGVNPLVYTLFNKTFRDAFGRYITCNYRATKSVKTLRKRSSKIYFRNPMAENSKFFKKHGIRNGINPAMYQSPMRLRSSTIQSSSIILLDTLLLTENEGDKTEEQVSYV
Sequence of Prostaglandin EP4 (h) (P35408 whole entry, looked up): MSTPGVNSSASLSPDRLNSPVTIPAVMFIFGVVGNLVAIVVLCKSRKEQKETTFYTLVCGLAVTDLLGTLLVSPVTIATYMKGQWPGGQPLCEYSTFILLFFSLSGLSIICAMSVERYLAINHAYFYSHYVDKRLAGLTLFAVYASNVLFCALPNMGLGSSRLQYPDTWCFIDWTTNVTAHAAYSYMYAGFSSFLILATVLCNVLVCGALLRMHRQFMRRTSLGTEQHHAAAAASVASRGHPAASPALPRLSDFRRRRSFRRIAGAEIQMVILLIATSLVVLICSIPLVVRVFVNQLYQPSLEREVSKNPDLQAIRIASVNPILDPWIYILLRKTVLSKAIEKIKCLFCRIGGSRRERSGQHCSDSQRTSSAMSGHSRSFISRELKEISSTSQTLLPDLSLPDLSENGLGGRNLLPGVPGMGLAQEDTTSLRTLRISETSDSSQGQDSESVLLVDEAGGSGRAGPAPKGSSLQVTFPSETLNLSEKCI
Sequence of Tachykinin NK1 (h) (P25103 whole entry, looked up): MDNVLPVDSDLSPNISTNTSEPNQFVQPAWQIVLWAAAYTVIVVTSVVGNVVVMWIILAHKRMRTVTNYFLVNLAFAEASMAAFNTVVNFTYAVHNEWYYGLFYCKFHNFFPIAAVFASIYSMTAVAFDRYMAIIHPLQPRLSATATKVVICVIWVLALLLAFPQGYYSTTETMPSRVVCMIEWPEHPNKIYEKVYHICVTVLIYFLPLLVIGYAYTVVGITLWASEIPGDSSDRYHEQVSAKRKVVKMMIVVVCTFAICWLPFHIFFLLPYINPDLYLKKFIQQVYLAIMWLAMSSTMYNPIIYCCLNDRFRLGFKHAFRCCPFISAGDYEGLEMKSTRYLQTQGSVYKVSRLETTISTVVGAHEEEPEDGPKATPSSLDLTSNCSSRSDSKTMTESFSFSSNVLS
Sequence of Adenosine A1 (h) (P30542 whole entry, looked up): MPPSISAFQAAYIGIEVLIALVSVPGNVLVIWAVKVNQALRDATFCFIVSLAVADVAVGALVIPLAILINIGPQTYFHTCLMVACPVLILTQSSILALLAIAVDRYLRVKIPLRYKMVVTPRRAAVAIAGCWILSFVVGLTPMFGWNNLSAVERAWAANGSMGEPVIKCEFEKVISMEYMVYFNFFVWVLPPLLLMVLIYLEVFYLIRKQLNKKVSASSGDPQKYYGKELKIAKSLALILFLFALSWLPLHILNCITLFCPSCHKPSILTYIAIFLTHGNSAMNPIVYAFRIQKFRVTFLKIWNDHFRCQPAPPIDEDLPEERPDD
Sequence of Neurotensin NT1 (h) (P30989 whole entry, looked up): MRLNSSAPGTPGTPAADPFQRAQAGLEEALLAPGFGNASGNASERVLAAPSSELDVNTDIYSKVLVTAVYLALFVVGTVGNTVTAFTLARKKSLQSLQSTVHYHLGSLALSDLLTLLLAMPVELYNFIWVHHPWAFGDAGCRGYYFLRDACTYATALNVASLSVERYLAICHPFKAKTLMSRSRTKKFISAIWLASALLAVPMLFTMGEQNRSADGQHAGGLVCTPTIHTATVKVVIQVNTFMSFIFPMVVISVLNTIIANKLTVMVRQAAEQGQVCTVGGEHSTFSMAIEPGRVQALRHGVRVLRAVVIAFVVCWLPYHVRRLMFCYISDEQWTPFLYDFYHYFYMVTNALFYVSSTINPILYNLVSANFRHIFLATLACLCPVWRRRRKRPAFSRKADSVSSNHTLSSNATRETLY
Sequence of Chemokine CCR1 (h) (P32246 whole entry, looked up): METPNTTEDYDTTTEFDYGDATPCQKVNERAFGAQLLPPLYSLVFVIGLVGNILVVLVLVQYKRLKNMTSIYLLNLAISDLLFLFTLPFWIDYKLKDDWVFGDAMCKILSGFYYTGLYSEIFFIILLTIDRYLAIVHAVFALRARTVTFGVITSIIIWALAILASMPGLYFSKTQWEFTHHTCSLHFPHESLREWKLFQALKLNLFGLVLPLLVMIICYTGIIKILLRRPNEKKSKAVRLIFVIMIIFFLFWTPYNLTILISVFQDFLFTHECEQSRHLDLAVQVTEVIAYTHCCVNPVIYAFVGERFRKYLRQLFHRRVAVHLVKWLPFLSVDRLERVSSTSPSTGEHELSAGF
Sequence of Adenosine A3 (h) (P0DMS8 whole entry, looked up): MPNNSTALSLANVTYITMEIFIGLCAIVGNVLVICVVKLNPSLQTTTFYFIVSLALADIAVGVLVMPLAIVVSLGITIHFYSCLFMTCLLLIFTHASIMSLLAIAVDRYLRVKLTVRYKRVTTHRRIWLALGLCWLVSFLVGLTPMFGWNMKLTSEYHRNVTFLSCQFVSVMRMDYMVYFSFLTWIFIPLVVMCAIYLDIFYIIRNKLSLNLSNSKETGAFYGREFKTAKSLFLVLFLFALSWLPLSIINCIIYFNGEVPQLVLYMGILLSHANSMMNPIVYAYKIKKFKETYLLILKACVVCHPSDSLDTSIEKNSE
Sequence of Vasopressin V1a (h) (P37288 whole entry, looked up): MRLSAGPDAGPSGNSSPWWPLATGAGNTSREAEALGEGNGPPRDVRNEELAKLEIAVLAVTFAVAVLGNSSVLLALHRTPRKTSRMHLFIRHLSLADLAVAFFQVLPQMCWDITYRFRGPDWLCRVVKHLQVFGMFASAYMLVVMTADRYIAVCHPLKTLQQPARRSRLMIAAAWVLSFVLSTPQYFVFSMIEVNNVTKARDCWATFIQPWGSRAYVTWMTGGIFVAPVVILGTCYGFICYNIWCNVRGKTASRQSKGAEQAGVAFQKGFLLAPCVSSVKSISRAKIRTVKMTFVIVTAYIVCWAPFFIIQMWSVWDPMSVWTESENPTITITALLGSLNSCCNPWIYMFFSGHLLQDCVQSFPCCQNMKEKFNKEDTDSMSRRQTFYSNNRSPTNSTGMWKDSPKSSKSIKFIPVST
Sequence of Tachykinin NK3 (h) (P29371 whole entry, looked up): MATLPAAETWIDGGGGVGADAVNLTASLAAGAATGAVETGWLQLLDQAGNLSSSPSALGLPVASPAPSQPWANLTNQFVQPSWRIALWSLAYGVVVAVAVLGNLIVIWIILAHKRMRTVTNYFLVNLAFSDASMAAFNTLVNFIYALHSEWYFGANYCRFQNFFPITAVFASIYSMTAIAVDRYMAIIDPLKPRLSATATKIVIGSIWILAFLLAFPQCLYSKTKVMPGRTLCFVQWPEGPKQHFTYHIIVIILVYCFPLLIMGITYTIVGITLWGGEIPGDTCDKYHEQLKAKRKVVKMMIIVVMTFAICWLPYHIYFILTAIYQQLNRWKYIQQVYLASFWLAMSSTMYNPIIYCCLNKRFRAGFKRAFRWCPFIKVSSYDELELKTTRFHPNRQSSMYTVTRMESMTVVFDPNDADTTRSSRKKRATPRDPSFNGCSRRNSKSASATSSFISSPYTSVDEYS
Sequence of Angiotensin AT2 (h) (P50052 whole entry, looked up): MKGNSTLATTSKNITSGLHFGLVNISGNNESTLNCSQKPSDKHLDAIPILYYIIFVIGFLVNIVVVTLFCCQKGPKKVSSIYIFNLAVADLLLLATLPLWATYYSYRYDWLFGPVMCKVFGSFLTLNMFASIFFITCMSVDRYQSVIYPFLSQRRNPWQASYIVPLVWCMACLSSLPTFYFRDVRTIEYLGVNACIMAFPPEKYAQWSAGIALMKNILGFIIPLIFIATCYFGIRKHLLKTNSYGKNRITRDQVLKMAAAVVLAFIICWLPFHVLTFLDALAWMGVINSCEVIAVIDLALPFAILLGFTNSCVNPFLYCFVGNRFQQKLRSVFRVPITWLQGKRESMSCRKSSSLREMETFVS
Sequence of Angiotensin AT1 (h) (P30556 whole entry, looked up): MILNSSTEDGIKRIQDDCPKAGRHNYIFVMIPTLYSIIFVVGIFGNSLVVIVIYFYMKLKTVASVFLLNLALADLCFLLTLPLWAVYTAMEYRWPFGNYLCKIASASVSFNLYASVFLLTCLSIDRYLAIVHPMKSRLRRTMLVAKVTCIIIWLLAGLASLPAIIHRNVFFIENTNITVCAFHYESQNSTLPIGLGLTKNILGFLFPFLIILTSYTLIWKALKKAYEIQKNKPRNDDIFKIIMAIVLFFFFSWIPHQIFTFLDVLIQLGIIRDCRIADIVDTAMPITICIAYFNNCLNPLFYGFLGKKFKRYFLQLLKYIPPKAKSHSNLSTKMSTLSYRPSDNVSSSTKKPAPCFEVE
Sequence of Tachykinin NK2 (h) (P21452 whole entry, looked up): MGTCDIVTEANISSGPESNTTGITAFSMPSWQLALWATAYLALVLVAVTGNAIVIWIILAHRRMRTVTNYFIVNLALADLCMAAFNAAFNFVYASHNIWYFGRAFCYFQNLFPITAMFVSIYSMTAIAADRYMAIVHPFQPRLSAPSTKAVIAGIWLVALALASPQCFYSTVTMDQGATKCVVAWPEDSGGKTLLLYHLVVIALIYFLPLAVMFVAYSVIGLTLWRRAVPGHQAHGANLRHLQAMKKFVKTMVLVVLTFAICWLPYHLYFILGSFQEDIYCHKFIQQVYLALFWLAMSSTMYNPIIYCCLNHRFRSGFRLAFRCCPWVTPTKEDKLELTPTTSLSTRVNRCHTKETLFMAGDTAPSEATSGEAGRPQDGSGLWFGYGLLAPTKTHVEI

COc1cc(SC(F)(F)F)c(OC)cc1CCN [Compound I-1, 2-(2,5-dimethoxy-4-((trifluoromethyl)thio)phenyl)ethan-1-amine]
inhibition at 10 µM [1]: > 80% | Ki ([1]; radioligand [125I](±)DOI, read-out: 5-HT2B, Ki): 6.7 nM | 5-HT2AR agonist activity (in words) [2]: pronounced agonists | EC50 [2]: 4.1 nM | activation selectivity for 5-HT2A over 5-HT2B ([2]; EC50, IP1): ~21 fold | 2A/2B EC50 Selectivity ([2]; IP1 assay): 21.5 | Emax ([2]; IP1 assay): ~86% | EC50 [3]: 88 nM | Emax [3]: ~84% | inhibition at 10 µM [4]: > 80% | inhibition at 10 µM ([5]; antagonist radioligand, read-out: inhibition at 10 μM): 70.4% | inhibition at 10 µM [6]: < 50% | inhibition at 10 µM [7]: < 50% | inhibition at 10 µM [8]: < 50% | inhibition at 10 µM [9]: < 50% | binding at 10 μM [10]: NB (inhibited less than 50% of radioligand bound to them, and therefore it can be concluded they do not bind (“no binding,” NB)) | inhibition at 10 µM [11]: < 50% | binding at 10 μM [12]: NB (inhibited less than 50% of radioligand bound to them, and therefore it can be concluded they do not bind (“no binding,” NB)) | inhibition at 10 µM [13]: < 50% | binding at 10 μM [14]: NB (inhibited less than 50% of radioligand bound to them, and therefore it can be concluded they do not bind (“no binding,” NB)) | inhibition at 10 µM [15]: < 50% | inhibition at 10 µM [16]: < 50% | inhibition at 10 µM [17]: < 50% | inhibition at 10 µM [18]: < 50% | inhibition at 10 µM [19]: < 50% | inhibition at 10 µM [20]: < 50% | inhibition at 10 µM [21]: < 50% | binding at 10 μM [22]: NB (inhibited less than 50% of radioligand bound to them, and therefore it can be concluded they do not bind (“no binding,” NB)) | inhibition at 10 µM [23]: < 50% | binding at 10 μM [24]: NB (inhibited less than 50% of radioligand bound to them, and therefore it can be concluded they do not bind (“no binding,” NB)) | inhibition at 10 µM [25]: < 50% | Decreased binding [26]: Decreased binding by ~48% | inhibition at 10 µM [27]: < 50%

COc1cc(CC(C)N)c(OC)cc1I (racemic) [DOI, (±)-2,5-dimethoxy-4-iodoamphetamine, reference compound]
Ki [1]: 1.5 nM | Emax ([2]; IP1 assay): ~86% | EC50 [3]: 16 nM | Emax [3]: ~98% | inhibition at 10 µM [4]: ≥ 80% | inhibition at 10 µM ([5]; read-out: binding at 10 μM): < 50% | inhibition at 10 µM [6]: < 50% | inhibition at 10 µM [7]: < 50% | inhibition at 10 µM [8]: < 50% | inhibition at 10 µM [9]: < 50% | binding at 10 μM [10]: NB (inhibited less than 50% of radioligand bound to them, and therefore it can be concluded they do not bind (“no binding,” NB)) | inhibition at 10 µM [11]: < 50% | binding at 10 μM [12]: NB (inhibited less than 50% of radioligand bound to them, and therefore it can be concluded they do not bind (“no binding,” NB)) | inhibition at 10 µM [13]: < 50% | binding at 10 μM [14]: NB (inhibited less than 50% of radioligand bound to them, and therefore it can be concluded they do not bind (“no binding,” NB)) | inhibition at 10 µM [15]: < 50% | inhibition at 10 µM [16]: < 50% | inhibition at 10 µM [17]: < 50% | inhibition at 10 µM [18]: < 50% | inhibition at 10 µM [19]: < 50% | inhibition at 10 µM [20]: < 50% | inhibition at 10 µM [21]: < 50% | binding at 10 μM [22]: NB (inhibited less than 50% of radioligand bound to them, and therefore it can be concluded they do not bind (“no binding,” NB)) | inhibition at 10 µM [23]: < 50% | binding at 10 μM [24]: NB (inhibited less than 50% of radioligand bound to them, and therefore it can be concluded they do not bind (“no binding,” NB)) | inhibition at 10 µM [25]: < 50% | Decreased binding [26]: Decreased binding by ~38% | inhibition at 10 µM [27]: < 50%
